Source: patent publication US20260306527A1, “PRMT INHIBITOR COMPOUNDS AND THE USES THEREOF” (Purdue Research Foundation, priority 2023, published 2026)
Read-outs that look alike come from different tables or passages of the source.

What was measured:
Format in all cases: biochemical
PRMT4 = biological target: T1, PRMT4 (Homo sapiens, UniProt Q86X55); experiment: radioactive assay (Reaction Biology Corp.), inhibition of PRMT4
T1 sequence (Q86X55 1-608): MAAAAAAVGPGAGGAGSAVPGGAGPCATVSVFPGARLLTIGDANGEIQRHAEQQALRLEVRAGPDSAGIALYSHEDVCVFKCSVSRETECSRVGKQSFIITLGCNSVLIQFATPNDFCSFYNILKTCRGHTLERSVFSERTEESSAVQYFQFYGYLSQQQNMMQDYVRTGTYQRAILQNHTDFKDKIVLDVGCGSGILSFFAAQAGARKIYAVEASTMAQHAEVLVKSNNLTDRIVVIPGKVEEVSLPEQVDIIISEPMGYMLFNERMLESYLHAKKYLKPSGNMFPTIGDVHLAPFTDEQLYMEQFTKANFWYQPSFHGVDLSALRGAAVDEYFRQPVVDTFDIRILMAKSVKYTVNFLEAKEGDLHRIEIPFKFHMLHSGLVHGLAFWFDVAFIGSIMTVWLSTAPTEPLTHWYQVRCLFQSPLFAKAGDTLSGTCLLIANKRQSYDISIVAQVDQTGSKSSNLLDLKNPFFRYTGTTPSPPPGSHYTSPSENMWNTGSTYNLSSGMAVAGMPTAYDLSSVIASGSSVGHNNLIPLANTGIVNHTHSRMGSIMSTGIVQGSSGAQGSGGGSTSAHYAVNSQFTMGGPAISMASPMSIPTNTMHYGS
Description: (§1) Next, the inhibition activity of the library was investigated for five PRMT members from type I PRMTs.
(§2) The PRMT 4, 6 and 8 methylation assays were performed by Reaction Biology corp.

PRMT3 = PRMT3 (Homo sapiens, UniProt O60678); experiment: SAHH-coupled fluorescence assay, inhibition of PRMT3; set-up: PRMT3 (residues 211-531) was cloned into the pET28a-MHL expression vector; tag of the pET28a-MHL vector (not described); made in house; host or cells: Escherichia coli BL21(DE3)
Sequence of PRMT3 (O60678 211-531): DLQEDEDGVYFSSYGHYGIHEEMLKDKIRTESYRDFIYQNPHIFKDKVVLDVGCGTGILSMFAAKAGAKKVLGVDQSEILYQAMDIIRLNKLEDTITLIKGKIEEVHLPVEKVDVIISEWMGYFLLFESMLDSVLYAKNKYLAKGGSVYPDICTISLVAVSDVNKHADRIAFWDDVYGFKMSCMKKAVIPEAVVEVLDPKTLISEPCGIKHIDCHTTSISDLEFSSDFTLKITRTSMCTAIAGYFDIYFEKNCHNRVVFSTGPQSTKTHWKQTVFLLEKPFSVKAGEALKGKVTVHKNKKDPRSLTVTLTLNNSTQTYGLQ
Description: (§3) A fluorescence-based SAHH-coupled assay was applied to study the inhibition activity of all synthesized compounds on PRMT 1 and 3.
(§4) The PRMT3 methylation assay was performed under the following conditions in a final well volume of 100 μL: 20 mM Tris (pH=7.5), 0.01% Triton X-100, 5 μM SAHH, 0.25 μM PRMT3, 30 μM AdoMet, and 15 μM ThioGlo4. […] Fluorescence was monitored on a BMG CLARIOstar microplate reader with excitation 380 nm and emission 505 nm. Data were processed by using GraphPad Prism software 8.0. All experiments were performed in duplicate.
as §1
as §4, with “8.0.” for “8.0. All experiments were performed in duplicate.”

PRMT6 = PRMT6 (Homo sapiens, UniProt Q96LA8); experiment: radioactive assay (Reaction Biology Corp.), inhibition of PRMT6
Sequence of PRMT6 (Q96LA8 whole entry, species assumed): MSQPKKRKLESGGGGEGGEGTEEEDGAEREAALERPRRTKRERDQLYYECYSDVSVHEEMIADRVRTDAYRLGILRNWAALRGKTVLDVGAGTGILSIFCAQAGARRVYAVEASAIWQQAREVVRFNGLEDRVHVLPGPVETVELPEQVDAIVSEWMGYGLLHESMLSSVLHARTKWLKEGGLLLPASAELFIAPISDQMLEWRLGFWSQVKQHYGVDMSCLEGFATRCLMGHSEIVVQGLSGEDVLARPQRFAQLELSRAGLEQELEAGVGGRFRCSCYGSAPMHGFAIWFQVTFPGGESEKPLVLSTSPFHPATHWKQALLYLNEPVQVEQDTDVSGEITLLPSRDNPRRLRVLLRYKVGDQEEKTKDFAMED
Description: as §1, §2

PRMT8 = PRMT8 (Homo sapiens, UniProt Q9NR22); experiment: radioactive assay (Reaction Biology Corp.), inhibition of PRMT8
Sequence of PRMT8 (Q9NR22 whole entry, species assumed): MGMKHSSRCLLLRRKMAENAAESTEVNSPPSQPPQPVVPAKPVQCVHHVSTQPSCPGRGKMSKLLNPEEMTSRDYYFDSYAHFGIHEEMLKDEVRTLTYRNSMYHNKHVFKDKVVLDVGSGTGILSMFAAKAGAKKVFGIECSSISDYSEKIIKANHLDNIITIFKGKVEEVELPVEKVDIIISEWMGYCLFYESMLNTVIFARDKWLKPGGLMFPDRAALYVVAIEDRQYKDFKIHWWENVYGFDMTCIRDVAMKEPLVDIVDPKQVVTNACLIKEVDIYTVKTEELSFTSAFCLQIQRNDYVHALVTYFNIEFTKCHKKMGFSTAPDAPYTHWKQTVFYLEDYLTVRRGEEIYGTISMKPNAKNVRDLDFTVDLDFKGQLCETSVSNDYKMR
Description: as §1, §2

PRMT1 = biological target: T2, PRMT1 (Homo sapiens, UniProt Q99873); experiment: SAHH-coupled fluorescence assay, inhibition of PRMT1
T2 construct: made in house
T2 sequence (Q99873 whole entry, species assumed): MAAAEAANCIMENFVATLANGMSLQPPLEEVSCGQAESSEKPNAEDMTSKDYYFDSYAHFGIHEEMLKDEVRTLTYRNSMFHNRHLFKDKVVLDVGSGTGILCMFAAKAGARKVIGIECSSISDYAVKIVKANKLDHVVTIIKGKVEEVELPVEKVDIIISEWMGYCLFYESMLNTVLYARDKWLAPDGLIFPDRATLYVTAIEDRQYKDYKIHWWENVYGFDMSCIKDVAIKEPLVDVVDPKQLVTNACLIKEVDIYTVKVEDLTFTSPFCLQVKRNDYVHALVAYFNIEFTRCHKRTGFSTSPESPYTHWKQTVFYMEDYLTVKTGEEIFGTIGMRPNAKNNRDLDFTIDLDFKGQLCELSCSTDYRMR
Description: as §3
(§5) The PRMT1 methylation assay was performed under the following conditions in a final well volume of 100 μL: 2.5 mM HEPES (pH=7.0), 25 mM NaCl, 25 μM EDTA, 50 μM TCEP, 0.01% Triton X-100, 5 μM SAHH, 0.1 μM PRMT1, 10 μM AdoMet, and 10 μM ThioGlo4. […] The fluorescence signal was monitored on a BMG CLARIOstar microplate reader with excitation at 400 nm and emission at 465 nm for 15 min. Data were processed using GraphPad Prism software 8.0.
as §1
as §5, with “A fluorescence-based SAHH-coupled assay was applied to determine the inhibition activity of all synthesized compounds on PRMT 1 and 3. The PRMT1” for “The PRMT1”, “software 8.0. All experiments were performed in duplicate.” for “software 8.0.”

SMILES	inhibition at 10 µM (PRMT4) [%]	inhibition at 10 µM (PRMT3) [%]	inhibition at 10 µM (PRMT6) [%]	inhibition at 10 µM (PRMT8) [%]	inhibition at 10 µM (PRMT1) [%]	IC50 (PRMT1; read-out: IC50 FOR PRMT1) [µM]	PRMT6 inhibition (PRMT6; 10 μM)	IC50 (PRMT1; read-out: IC50[μM] | PRMT1) [µM]	PRMT4 inhibition (PRMT4)	PRMT1 inhibition (PRMT1)
COc1cc2nc(-c3ccoc3)nc(NCCSC[C@H]3O[C@@H](n4cnc5c(N)ncnc54)[C@H](O)[C@@H]3O)c2cc1OC [Compound 12d]	1	10	16	25	2					
Nc1ncnc2c1ncn2[C@@H]1O[C@H](CSCCNCc2cccc(-c3ccc(F)c(O)c3)c2)[C@@H](O)[C@H]1O [Compound 10f]	99	20	54	80	7					
Nc1ncnc2c1ncn2[C@@H]1O[C@H](CSCCCNCc2cccc(-c3ccc(C(F)(F)F)cc3)c2)[C@@H](O)[C@H]1O [Compound 10o]	97	24	37	65	71					
Nc1ncnc2c1ncn2[C@@H]1O[C@H](CSCCOc2ccc(-c3ccc(F)c(O)c3)cc2)[C@@H](O)[C@H]1O [Compound 14d]	51	3	18	42	16					
Nc1ncnc2c1ncn2[C@@H]1O[C@H](CSCCOc2ccc(-c3ccc(O)cc3)cc2)[C@@H](O)[C@H]1O [Compound 14b]	13	6	20	20	8					
COc1cc2nc(-c3ccc(O)cc3)nc(NCCSC[C@H]3O[C@@H](n4cnc5c(N)ncnc54)[C@H](O)[C@@H]3O)c2cc1OC [Compound 12b]	-4	13	91	22	2		selective inhibition to PRMT6			
Nc1ncnc2c1ncn2[C@@H]1O[C@H](CSCCNCc2cccc(-c3cccc4cn[nH]c34)c2)[C@@H](O)[C@H]1O [Compound 10h]	100	12	82	58	1					
Nc1ncnc2c1ncn2[C@@H]1O[C@H](CSCCCNCc2cccc(-c3ccc(F)c(O)c3)c2)[C@@H](O)[C@H]1O [Compound 10r]	95	22	74	72	52					
N=C(NCCCSC[C@H]1O[C@@H](n2cnc3c(N)ncnc32)[C@H](O)[C@@H]1O)Nc1cccc(F)c1 [Compound 7s]	58	9	49	-12	23					
COc1cc2nc(-c3ccccc3O)nc(NCCSC[C@H]3O[C@@H](n4cnc5c(N)ncnc54)[C@H](O)[C@@H]3O)c2cc1OC [Compound 12h]	36	12	16	18	1					
Nc1ncnc2c1ncn2[C@@H]1O[C@H](CSCCOc2ccc(-c3cccc(O)c3)cc2)[C@@H](O)[C@H]1O [Compound 14f]	62	5	13	40	5					
N=C(NCCSC[C@H]1O[C@@H](n2cnc3c(N)ncnc32)[C@H](O)[C@@H]1O)Nc1ccccc1 [Compound 5b]		1	75	66	73			3 ± 0.16		
N=C(NCCCSC[C@H]1O[C@@H](n2cnc3c(N)ncnc32)[C@H](O)[C@@H]1O)Nc1cccc(-c2n[nH]cc2C(F)(F)F)c1 [Compound 6q]	100	60	98	100	99					
COc1cc2nc(-c3cccc(F)c3)nc(NCCSC[C@H]3O[C@@H](n4cnc5c(N)ncnc54)[C@H](O)[C@@H]3O)c2cc1OC [Compound 12c]	62	15	43	35	15					
Nc1ncnc2c1ncn2[C@@H]1O[C@H](CSCCNC(=O)NCc2ccc(-c3ccc(O)cc3)cc2)[C@@H](O)[C@H]1O [Compound 8c]	42	10	82	3	21					
Nc1ncnc2c1ncn2[C@@H]1O[C@H](CSCCNC(=O)Nc2ccccc2Br)[C@@H](O)[C@H]1O [Compound 7m]	81	55	11	13	10					
Nc1ncnc2c1ncn2[C@@H]1O[C@H](CSCCNCc2cccc(Br)c2)[C@@H](O)[C@H]1O [Compound 9a]		8	58	47	11					

Other lines, results leading:

inhibition at 10 µM (PRMT4) [%]	inhibition at 10 µM (PRMT3) [%]	inhibition at 10 µM (PRMT6) [%]	inhibition at 10 µM (PRMT8) [%]	inhibition at 10 µM (PRMT1) [%]	IC50 (PRMT1; read-out: IC50 FOR PRMT1) [µM]	PRMT6 inhibition (PRMT6; 10 μM)	IC50 (PRMT1; read-out: IC50[μM] | PRMT1) [µM]	PRMT4 inhibition (PRMT4)	PRMT1 inhibition (PRMT1)	SMILES
36	3	88	74	76	0.92 ± 0.091					N=C(NCCCSC[C@H]1O[C@@H](n2cnc3c(NCCCc4ccccc4)ncnc32)[C@H](O)[C@@H]1O)NCC1CC1 [Compound 19f]
54	2	92	86	83	0.46 ± 0.074					N=C(NCCCSC[C@H]1O[C@@H](n2cnc3c(NCCCc4ccccc4)ncnc32)[C@H](O)[C@@H]1O)Nc1ccccc1 [Compound 19j]
44	10	89	83	89	0.48 ± 0.079					N=C(NCCCSC[C@H]1O[C@@H](n2cnc3c(NCCCc4ccccc4)ncnc32)[C@H](O)[C@@H]1O)NCc1ccccc1 [Compound 19k]
								selective and potent PRMT4 inhibitor		N=C(NCCCN(CCNC(=O)NCc1ccccc1)C[C@H]1O[C@@H](n2cnc3c(N)ncnc32)[C@H](O)[C@@H]1O)NC1CCCC1 [YD1289]
									inhibitory effect of YD1375 on PRMT1	N=C(NCCCSCC1CC(n2ccc3c(NCCCc4ccccc4)ncnc32)C(O)C1O)Nc1cccc(Br)c1 (centres unmarked) [YD1375]
								potent and selective PRMT4 inhibitors		Nc1ncnc2c1ncn2[C@@H]1O[C@H](CN(CCCNCc2cccc(-c3ccc(Cl)cc3)c2)CCNC(=O)NCc2ccccc2)[C@@H](O)[C@H]1O [YD1305]
								potent and selective PRMT4 inhibitors		Nc1ncnc2c1ncn2[C@@H]1O[C@H](CN(CCCNCc2cccc(Br)c2)CCNC(=O)NCc2ccccc2)[C@@H](O)[C@H]1O [YD1349]
